Reference: patent US20260262643A1, “HERBICIDAL BENZOXAZINES” (FMC CORPORATION, priority 2022, published 2026)

How the values were obtained:
wheat [1] = assay: Test C postemergence; assay type: in vivo, Triticum aestivum; details: 10 days, 0 to 100 scale (0 no effect, 100 complete control)
Method in brief: (§1)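 Visual injury score, 0–100 (100 = complete control), taken 10 days after treatment relative to untreated controls. Pre: directed spray onto soil over sown seeds. Post: foliar spray at one- to two-leaf stage, 2–10 cm. Solvent/surfactant formulation; loam–sand soil; greenhouse.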

barnyardgrass [2] = assay: Test D flooded paddy test; assay type: in vivo, Echinochloa crus-galli; details: 250 g ai/ha, applied to paddy water, visual rating after 13 to 14 days, scale 0 to 100 (0 no effect, 100 complete control)
Method in brief: (§2)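 Post-flood water application at the 2-leaf stage; 3 cm flood depth kept constant; visual control rating 0–100 after 13–14 days greenhouse growth.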

pigweed, palmer [3] = assay: Test C postemergence; assay type: in vivo, Amaranthus palmeri; details: 10 days, 0 to 100 scale (0 no effect, 100 complete control)
Method in brief: as §1

ragweed [4] = assay: Test C preemergence; assay type: in vivo, Ambrosia artemisiifolia
Method in brief: as §1

pigweed, palmer [5] = assay: Test C preemergence; assay type: in vivo, Amaranthus palmeri
Method in brief: as §1

foxtail, giant [6] = assay: Test C postemergence; assay type: in vivo, Setaria faberi; details: 10 days, 0 to 100 scale (0 no effect, 100 complete control)
Excerpt: (§3) Seeds of plant species selected from barnyardgrass (Echinochloa crusgalli), blackgrass (Alopecurus myosuroides), corn (Zea mays), foxtail, giant (giant foxtail, Setaria faberi), green foxtail (Setaria viridis), goosegrass (Eleusine indica), kochia (Bassia scoparia), oat, wild (wild oat, Avena fatua), pigweed, palmer (palmer amaranth, palmer pigweed, Amaranthus palmeri), Pigweed, Redroot (redroot pigweed, Amaranthus retroflexus), ragweed (common ragweed, Ambrosia artemisiifolia), ryegrass, Italian ([…] ryegrass, Lolium multiflorum), soybean (Glycine max), and wheat (Triticum aestivum) were planted into a blend of loam soil and sand and treated preemergence with a directed soil spray using test chemicals formulated in a non-phytotoxic solvent mixture which included a surfactant. At the same time, plants selected from these crops and weed species and also galium (catchweed bedstraw, Galium aparine) and horseweed (Erigeron canadensis) were planted in pots containing the same blend of loam soil and sand and treated with postemergence applications of test chemicals formulated in the same manner. Plants ranged in height from 2 to 10 cm and were in the one- to two-leaf stage for the postemergence treatment. Treated plants and untreated controls were maintained in a greenhouse for 10 days, after which time all treated plants were compared to untreated controls and visually evaluated for injury. Plant response ratings, summarized in Table C, are based on a 0 to 100 scale where 0 is no effect and 100 is complete control. A dash (-) response means no test result.

ducksalad = assay: Test D flooded paddy test; assay type: in vivo, Heteranthera limosa; details: 250 g ai/ha, applied to paddy water, visual rating after 13 to 14 days, scale 0 to 100 (0 no effect, 100 complete control)
Method in brief: as §2

rice = assay: Test D flooded paddy test; assay type: in vivo, Oryza sativa; details: 250 g ai/ha, applied to paddy water, visual rating after 13 to 14 days, scale 0 to 100 (0 no effect, 100 complete control)
Method in brief: as §2

ryegrass, Italian [7] = assay: Test C preemergence; assay type: in vivo, Lolium multiflorum
Method in brief: as §1

blackgrass [8] = assay: Test C postemergence; assay type: in vivo, Alopecurus myosuroides; details: 10 days, 0 to 100 scale (0 no effect, 100 complete control)
Method in brief: as §1

blackgrass [9] = assay: Test C preemergence; assay type: in vivo, Alopecurus myosuroides
Method in brief: as §1

kochia [10] = assay: Test C preemergence; assay type: in vivo, Bassia scoparia
Method in brief: as §1

ragweed [11] = assay: Test C postemergence; assay type: in vivo, Ambrosia artemisiifolia; details: 10 days, 0 to 100 scale (0 no effect, 100 complete control)
Method in brief: as §1

horseweed = assay: Test C postemergence; assay type: in vivo, Erigeron canadensis; details: 10 days, 0 to 100 scale (0 no effect, 100 complete control)
Method in brief: as §1

barnyardgrass [12] = assay: Test C postemergence; assay type: in vivo, Echinochloa crusgalli; details: 10 days, 0 to 100 scale (0 no effect, 100 complete control)
Method in brief: as §1

oat, wild [13] = assay: Test C postemergence; assay type: in vivo, Avena fatua; details: 10 days, 0 to 100 scale (0 no effect, 100 complete control)
Method in brief: as §1

wheat [14] = assay: Test C preemergence; assay type: in vivo, Triticum aestivum
Method in brief: as §1

foxtail, giant [15] = assay: Test C preemergence; assay type: in vivo, Setaria faberi
Excerpt: as §3

barnyardgrass [16] = assay: Test C preemergence; assay type: in vivo, Echinochloa crusgalli
Method in brief: as §1

ryegrass, Italian [17] = assay: Test C postemergence; assay type: in vivo, Lolium multiflorum; details: 10 days, 0 to 100 scale (0 no effect, 100 complete control)
Method in brief: as §1

soybean [18] = assay: Test C preemergence; assay type: in vivo, Glycine max
Method in brief: as §1

corn [19] = assay: Test C preemergence; assay type: in vivo, Zea mays
Method in brief: as §1

soybean [20] = assay: Test C postemergence; assay type: in vivo, Glycine max; details: 10 days, 0 to 100 scale (0 no effect, 100 complete control)
Method in brief: as §1

kochia [21] = assay: Test C postemergence; assay type: in vivo, Bassia scoparia; details: 10 days, 0 to 100 scale (0 no effect, 100 complete control)
Method in brief: as §1

galium = assay: Test C postemergence; assay type: in vivo, Galium aparine; details: 10 days, 0 to 100 scale (0 no effect, 100 complete control)
Method in brief: as §1

corn [22] = assay: Test C postemergence; assay type: in vivo, Zea mays; details: 10 days, 0 to 100 scale (0 no effect, 100 complete control)
Method in brief: as §1

oat, wild [23] = assay: Test C preemergence; assay type: in vivo, Avena fatua
Method in brief: as §1

sedge, umbrella = assay: Test D flooded paddy test; assay type: in vivo, Cyperus difformis; details: 250 g ai/ha, applied to paddy water, visual rating after 13 to 14 days, scale 0 to 100 (0 no effect, 100 complete control)
Method in brief: as §2

[24] = 500 g ai/ha, preemergence, 0 to 100 scale (0 no effect, 100 complete control)
[25] = Preemergence, 125 g ai/ha, 0 to 100 scale, 0 no effect, 100 complete control

Which results are given for CC(C)c1ncn(-c2cc(C(=O)N3CC(C(F)(F)F)Oc4c(Cl)cccc43)ccn2)n1 (racemic) [Compound 329]?
Plant response rating, Wheat (wheat [1]; 500 g ai/ha, postemergence): 50; Plant response rating, Wheat (wheat [1]; Postemergence, 125 g ai/ha): 20; Plant response rating, Barnyardgrass (Flood) (barnyardgrass [2]): 0; Plant response rating, Pigweed, Palmer (pigweed, palmer [3]; 500 g ai/ha, postemergence): 80; Plant response rating, Pigweed, Palmer (pigweed, palmer [3]; Postemergence, 125 g ai/ha): 20; Ragweed plant response rating (ragweed [4]; [24]): 60; Plant response rating, Ragweed (ragweed [4]; [25]): 0; Pigweed, Palmer plant response rating (pigweed, palmer [5]; [24]): 100; Plant response rating, Pigweed, Palmer (pigweed, palmer [5]; [25]): 90; Plant response rating, Foxtail, Giant (foxtail, giant [6]; 500 g ai/ha, postemergence): 90; Plant response rating, Foxtail, Giant (foxtail, giant [6]; Postemergence, 125 g ai/ha): 50; Plant response rating, Ducksalad (Flood) (ducksalad): 0; Plant response rating, Rice (Flood) (rice): 0; Ryegrass, Italian plant response rating (ryegrass, Italian [7]; [24]): 100; Plant response rating, Ryegrass, Italian (ryegrass, Italian [7]; [25]): 70; Plant response rating, Blackgrass (blackgrass [8]; 500 g ai/ha, postemergence): 90; Plant response rating, Blackgrass (blackgrass [8]; Postemergence, 125 g ai/ha): 50; Blackgrass plant response rating (blackgrass [9]; [24]): 80; Plant response rating, Blackgrass (blackgrass [9]; [25]): 60; Kochia plant response rating (kochia [10]; [24]): 100; Plant response rating, Kochia (kochia [10]; [25]): 40; Plant response rating, Ragweed (ragweed [11]; 500 g ai/ha, postemergence): 40; Plant response rating, Ragweed (ragweed [11]; Postemergence, 125 g ai/ha): 40; Plant response rating, Horseweed (horseweed; 500 g ai/ha, postemergence): 0; Plant response rating, Horseweed (horseweed; Postemergence, 125 g ai/ha): 0; Plant response rating, Barnyardgrass (barnyardgrass [12]; 500 g ai/ha, postemergence): 60; Plant response rating, Barnyardgrass (barnyardgrass [12]; Postemergence, 125 g ai/ha): 10; Plant response rating, Oat, Wild (oat, wild [13]; 500 g ai/ha, postemergence): 80; Plant response rating, Oat, Wild (oat, wild [13]; Postemergence, 125 g ai/ha): 30; Wheat plant response rating (wheat [14]; [24]): 30; Plant response rating, Wheat (wheat [14]; [25]): 10; Foxtail, Giant plant response rating (foxtail, giant [15]; [24]): 100; Plant response rating, Foxtail, Giant (foxtail, giant [15]; [25]): 100; Barnyardgrass plant response rating (barnyardgrass [16]; [24]): 100; Plant response rating, Barnyardgrass (barnyardgrass [16]; [25]): 70; Plant response rating, Ryegrass, Italian (ryegrass, Italian [17]; 500 g ai/ha, postemergence): 70; Plant response rating, Ryegrass, Italian (ryegrass, Italian [17]; Postemergence, 125 g ai/ha): 50; Soybean plant response rating (soybean [18]; [24]): 80; Plant response rating, Soybean (soybean [18]; [25]): 0; Corn plant response rating (corn [19]; [24]): 40; Plant response rating, Corn (corn [19]; [25]): 20; Plant response rating, Soybean (soybean [20]; 500 g ai/ha, postemergence): 100; Plant response rating, Soybean (soybean [20]; Postemergence, 125 g ai/ha): 100; Plant response rating, Kochia (kochia [21]; 500 g ai/ha, postemergence): 90; Plant response rating, Kochia (kochia [21]; Postemergence, 125 g ai/ha): 70; Plant response rating, Galium (galium; 500 g ai/ha, postemergence): 100; Plant response rating, Galium (galium; Postemergence, 125 g ai/ha): 60; Plant response rating, Corn (corn [22]; 500 g ai/ha, postemergence): 80; Plant response rating, Corn (corn [22]; Postemergence, 125 g ai/ha): 30; Oat, Wild plant response rating (oat, wild [23]; [24]): 80; Plant response rating, Oat, Wild (oat, wild [23]; [25]): 30; Plant response rating, Sedge, Umbrella (Flood) (sedge, umbrella): 0
